Read-outs that look alike come from different tables or passages of the source.
Experiments:
[1] = Solubility of vorolanib in water; type: physicochemical
Description: Vorolanib has the chemical designation (S,Z)—N-(1-(Dimethylcarbamoyl) pyrrolidin-3-yl)-5-((5-fluoro-2-oxoindolin-3-ylidene)methyl)-2,4-dimethyl-1H-pyrrole-3-carboxamide. Synonyms include the term “X-82”. The molecular formula is C23H26FN5O3. […]

[2] = 18 month intravitreal toxicity and plasma pharmacokinetics study (Example 6); type: in vivo
Procedure: An 18 month intravitreal toxicity study for the insert was also performed in 80 Dutch Belted rabbits (40 male and 40 female). Animals were evaluated for a period of 6 and 18 months following placement of intravitreal inserts. The objective was to characterize the ocular toxicity, plasma pharmacokinetics and biodegradation of a vorolanib insert following bilateral intravitreal injection.
The tables below describe the group assignments and dose levels. For the toxicology groups, animals were sacrificed at 6 months and 18 months. For the plasma pharmacokinetic analysis, blood samples were collected at Days 1, 3, and 7 and then 1, 2, 3, 4, 5, 6, 12, 14, 16 and 18 Months.
The placebo group (1) animals received two placebo inserts by injection in each eye. The low dose group (2) animals received 2 inserts in each eye. The mid dose group (3) animals received 3 inserts in each eye given in 2 separate injections. The high dose group (4) animals received 4 inserts in each eye given in 2 separate injections (2 inserts/injection). The highest dose group (5) animals received 6 inserts in each eye given in 2 separate injections (3 inserts/injection).
At each scheduled timepoint, whole blood was collected via puncture of a marginal ear vein. Samples were analyzed for clinical pathology and plasma pharmacokinetics. Animals were euthanized according to the schedules described above. […]

[3] = Intravitreal pharmacokinetic study of vorolanib insert (Example 5B); type: in vivo, Dutch Belted Rabbits
Procedure: Another Intravitreal Pharmacokinetic Study was performed in Dutch Belted Rabbits. The objective of this study was to evaluate the plasma and ocular pharmacokinetics of a vorolanib insert following bilateral intravitreal injection in rabbit eyes. Animals were evaluated up to 12 months following placement of the intravitreal insert.
Dutch Belted rabbits were administered vorolanib inserts in each eye by intravitreal injection. Group 1 eyes received 1 insert containing 643 μg of vorolanib, and Group 2 eyes received 2 inserts containing 900 μg total. Blood samples were collected at 2, 7, 14, and 28 days and then once monthly for months 2-12. Inserts were recovered at 2, 7, and 14 days and then at 1, 2, 4, 6, 8, 10, and 12 months. Residual vorolanib levels were determined in all explants using high-performance liquid chromatography. The vorolanib release rate was estimated based on residual levels in the explants. Plasma and ocular tissues were separated and analyzed for vorolanib and its metabolite using liquid chromatography mass spectrometry.

[4] = Intravitreal pharmacokinetic study of vorolanib insert (Example 5A); type: in vivo, Male Dutch Belted Rabbits; conditions: for vitreous level of vorolanib at steady state: intravitreal; for AUC(0-t): read-out: vitreous AUClast
Procedure: An Intravitreal Pharmacokinetic Study was performed in Male Dutch Belted Rabbits. The objective of this study was to characterize the plasma and ocular tissue pharmacokinetics of a vorolanib insert following bilateral intravitreal injection on Day 1. Animals were evaluated up to 24 months following placement of the intravitreal insert.
The low dose group (1) received 3 inserts per eye for a total dose of 630 μg per eye. The high dose group (2) animals received 6 inserts per eye given in 2 separate injections (3 inserts per injection) for a total dose of 1,260 μg per eye.
Prior to each scheduled sacrifice point, one whole blood sample was collected from a targeted 2 animals per group via puncture of a marginal ear vein. Samples were tested for levels of vorolanib and its metabolite. Two animals per group were euthanized on day 1 at 6, 12, 24 and 48 hours, on days 7 and 14, and at 1, 2, 4, 6, 8, 16 and 24 months.

[5] = system: Laser-Induced Choroidal Neovascularization (CNV); experiment: Swine model of laser-induced choroidal neovascularization, safety and efficacy (Example 7); type: in vivo
Procedure: Safety and efficacy of a vorolanib insert were evaluated in a Swine (Mini-pig) Model of Laser-Induced Choroidal Neovascularization (CNV). The primary objective of this study was to evaluate the long-term safety and inhibition of vascular permeability and neovascularization in a laser-induced model of choroidal neovascularization (CNV) using a vorolanib insert in swine.
On the day of lasering (Groups 1-4) animals were treated with an 810 nm diode laser delivered through an indirect ophthalmoscope. Approximately 6 single laser spots were placed between retinal veins. Both eyes underwent laser treatment according to the schedule in the table above.
On the day of intravitreal injections animals were anesthetized and the eyes were aseptically prepared. […] Animals were allowed to recover normally from the procedure. The pigs were given a topical drop of antibiotic ophthalmic solution 4-6 hours later, and then BID for 2 additional days with at least 6 hours between doses. Animals were dosed on either Day 0 immediately following laser CNV induction or 7 days prior to laser CNV induction according to the schedule in the table above. […]
At time points indicated by the experimental design table, following final data collections, animals were euthanized. Histology was evaluated for eyes from Groups 5-6.

[6] = male, Dutch Belted, rabbit, vitreous humor, topical or ocular, 630 ug, through day 180
[7] = male, Dutch Belted, rabbit, vitreous humor, topical or ocular, 1260 ug, through day 180

Cc1[nH]c(/C=C2\C(=O)Nc3ccc(F)cc32)c(C)c1C(=O)N[C@H]1CCN(C(=O)N(C)C)C1 [vorolanib, (S,Z)—N-(1-(Dimethylcarbamoyl)pyrrolidin-3-yl)-5-((5-fluoro-2-oxoindolin-3-ylidene)methyl)-2,4-dimethyl-1H-pyrrole-3-carboxamide]
solubility [1]: < 10 µg/mL | vorolanib plasma levels ([2]; plasma): low pg/mL range | adverse findings ([2]; up to 6 inserts per eye): No adverse findings | concentration at 10 months ([3]; Dutch Belted, rabbit, in vivo): < 10 ng/mL | drop in mean vorolanib concentration in ocular tissues and plasma ([3]; Dutch Belted, rabbit, in vivo): 85%-99% | vorolanib exposure rank order ([3]; ocular tissues and plasma): choroid=retina=vitreous>aqueous humor>plasma | concentrations in target ocular tissues (choroid and retina) relative to IC50 for VEGFR2 ([3]; through 8 months): above the IC50 for VEGFR2 | change in plasma levels ([4]; after 99 days): No apparent change | vorolanib levels in the vitreous and the retina/choroid relative to IC50 for VEGFR ([4]; at the time points tested): remained significantly above the IC50 for VEGFR | retina/choroid level at steady state ([4]; high dose 1,260 μg per eye): 89 ng/g | vitreous level of vorolanib at steady state ([4]; high dose 1,260 μg per eye (6 inserts)): 97 ng/mL | steady state reached by ([4]; in vivo): ≤ 105 days | burst period of drug release ([4]; in vivo, before steady state): 90 days | retina/choroid level at steady state ([4]; low dose 630 μg per eye): 49 ng/g | vitreous level of vorolanib at steady state ([4]; low dose 630 μg per eye (3 inserts)): 56 ng/mL | Cmax [4, 6]: 232 ng/mL | Tmax [4, 6]: 14 days | AUC(0-t) [4, 6]: 316 µg·h/mL | Cmax [4, 7]: 1700 ng/mL | AUC(0-t) [4, 7]: 1580 µg·h/mL | vorolanib plasma levels in the PK study ([4]; plasma): low pg/mL range

aflibercept: VEGF inhibitor (Regeneron), intravitreal injection, comparator in the swine CNV model
reduction in Corrected Total Lesion Fluorescence (CTLF) value ([5]; Day 7 to Day 28, aflibercept 2 mg, 50 μL/eye IVT, Day 0): largest reduction in CTLF values | efficacy in the model ([5]; aflibercept 2 mg): normal amounts of efficacy
